Laboratory results reported in the supplement of paper PMC8633005.

Experiments:
Test in all cases: drug sensitivity score (DSS) (DSS (unitless, 0-50 scale)); higher = more sensitive (stronger viability inhibition); extreme values may be limits of the assay
Conditions in all cases: 72 h; culture: 2D
[1] = system: WM165
Procedure, shortened: (§1)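 Patient-derived melanoma cultures (1000–1500 cells per well) and melanoma cell lines were grown in 2D in 384-well plates holding a 527-compound oncology library. Each compound was dissolved in DMSO or water and tested at five concentrations spanning a 10,000-fold range. After 72 h at 37 °C, viability was read by CellTiter-Glo luminescence. A drug sensitivity score, a modified area-under-curve measure, was derived from dose-response curves fitted in the in-house Breeze software.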

[2] = system: SK-MEL-28
Procedure, shortened: as §1

[3] = system: WM852
Procedure, shortened: as §1

[4] = system: Bowes
Procedure, shortened: as §1

[5] = system: FM-MEL-6
Procedure, shortened: as §1

[6] = system: SK-MEL-2
Procedure, shortened: as §1

[7] = system: FM-MEL-2
Procedure, shortened: as §1

[8] = system: FM-MEL-3
Procedure, shortened: as §1

Row | SMILES | drug sensitivity score [1] | drug sensitivity score [2] | drug sensitivity score [3] | drug sensitivity score [4] | drug sensitivity score [5] | drug sensitivity score [6] | drug sensitivity score [7] | drug sensitivity score [8]
1 | COc1ccc(CCc2nc3cc(-c4c(C)noc4C)ccc3n2C[C@H](C)N2CCOCC2)cc1Cl [SGC-CBP30] | 5.2 | 0.9 | 0 | 3.6 | 3 | 0.1 | 4.9 | 7.4
2 | CCCc1cc(C)[nH]c(=O)c1CNC(=O)c1cc(-c2ccnc(N3CCN(C)CC3)c2)cc2c1cnn2C(C)C [GSK343] | 0 | 0 | 0 | 0 | 0 | 0.1 | 0.1 | 0.2
3 | S=c1[nH]cnc2nc[nH]c12 [Mercaptopurine] | 7.3 | 3.8 | 5.5 | 1.9 | 0.5 | 0 | 0.1 | 0
4 | O=C(O)c1ccc(-c2c[nH]c3ncc(-c4ccccc4)cc23)cc1C1CCCC1 | 1.2 | 0.7 | 0 | 0 | 0 | 0 | 0 | 0
5 | O=C1c2c(O)ccc(O)c2C(=O)c2c(NCCNCCO)ccc(NCCNCCO)c21 [Mitoxantrone] | 16.8 | 6.1 | 5.5 | 6.7 | 5.4 | 3.4 | 7.1 | 3.9
6 | CCC1(c2ccc(N)cc2)CCC(=O)NC1=O (stereo not drawn) [Aminoglutethimide] | 0 | 0 | 0 | 0 | 0 | 0 | 0 | 0
7 | C#Cc1cccc(Nc2ncnc3cc(OCCOC)c(OCCOC)cc23)c1 [Erlotinib] | 3.9 | 1.1 | 2.5 | 1.8 | 1.9 | 0 | 4.4 | 3.5
8 | COc1cc2ncnc(Nc3ccc(F)c(Cl)c3)c2cc1NC(=O)/C=C/CN1CCCCC1 [Dacomitinib] | 0 | 0 | 0.3 | 4.1 | 0.4 | 0 | 0.4 | 1
9 | NC[C@@](O)(c1ccc(Cl)cc1)c1ccc(-c2cn[nH]c2)cc1 | 2.1 | 1.7 | 0.6 | 0 | 4 | 0 | 1.4 | 0
10 | CCN(CC)CCOc1ccc(C(=C(Cl)c2ccccc2)c2ccccc2)cc1 [Clomifene] | 6.1 | 6.8 | 5.2 | 5.8 | 6.3 | 4.2 | 4.1 | 5.6
11 | CCCCCCCCc1ccc(CCC(N)(CO)CO)cc1 [Fingolimod] | 6.3 | 6.2 | 7 | 8.5 | 6.4 | 5.7 | 6.2 | 7.5
12 | FC(F)(F)c1ccc(CNc2ccc(Cc3c[nH]c4ncc(Cl)cc34)cn2)cn1 [Pexidartinib] | 2.4 | 0.4 | 4.5 | 0.2 | 1.1 | 0 | 1 | 3
13 | CC1=C2C[C@H]3[C@@H](CC[C@@H]4C[C@H](NS(C)(=O)=O)CC[C@@]43C)[C@@H]2CC[C@@]2(C1)O[C@@H]1C[C@H](C)CN[C@H]1[C@H]2C [Saridegib] | 0.5 | 0 | 0 | 0 | 0 | 0 | 0 | 0
14 | CC(C)NC[C@@H](C(=O)N1CCN(c2ncnc3c2[C@H](C)C[C@H]3O)CC1)c1ccc(Cl)cc1 [Ipatasertib] | 2.2 | 1.7 | 0 | 0 | 0.9 | 0 | 2.1 | 0.3
15 | O=C(O)CCCCC(CCSCc1ccccc1)SCc1ccccc1 (stereo not drawn) [CPI-613] | 0 | 0 | 0 | 0 | 0 | 0 | 0 | 0
16 | C[C@@H]1COCCN1c1cc(C2([S@](C)(=N)=O)CC2)nc(-c2cc[nH]c3nccc2-3)n1 [AZD6738] | 10.2 | 2.7 | 14.8 | 19.3 | 7 | 10.8 | 3.4 | 9.7
17 | Nc1ccccc1NC(=O)c1ccc(CNc2nccc(-c3cccnc3)n2)cc1 [Mocetinostat] | 11.9 | 9.9 | 1.7 | 6.4 | 11.4 | 9.4 | 6.7 | 8.4
18 | Cc1c(F)cc(C(=O)NC2CC2)cc1-c1ccc(C(=O)NCC(C)(C)C)cn1 [Losmapimod] | 0 | 0 | 0 | 2.8 | 0 | 0 | 1.6 | 0.7
19 | CCOc1ccccc1-n1c(C(C)N2CCN(C(=O)COc3ccc(Cl)cc3)CC2)nc2ccccc2c1=O (stereo not drawn) [Erastin] | 10.8 | 0 | 12 | 6.2 | 0 | 1.3 | 7.6 | 5.8
20 | Cc1nc(Nc2ncc(C(=O)Nc3c(C)cccc3Cl)s2)cc(N2CCN(CCO)CC2)n1 [Dasatinib] | 5.3 | 3.4 | 0.1 | 1.9 | 0 | 0 | 0 | 0
21 | O=C(NOCCO)c1ccc2cncn2c1Nc1ccc(I)cc1F [GDC-0623] | 7.6 | 8.9 | 2.4 | 1.4 | 6.2 | 16.8 | 16.5 | 8.9
